As usually defined, the HC50 is the concentration that lyses half of the red blood cells. A low value points to stronger haemolysis. As a reminder, the solubility is the concentration that dissolves in the medium under given conditions. Lower therefore signals little dissolved substance.

We go through three molecules from US5606038A, “Amphiphilic polyene macrolide antibiotic compounds” (Competitive Technologies, Inc., priority 1995, dated 1997).

The conditions of data set [1]: in solution; literature; cited from earlier work.
Data set [2] relates to Candida albicans. Briefly: K+ release from fungal cells. Format: cell-based. The following applies: 3×10^7 fungal cells/ml, read-out: concentration for releasing 50% of the K+ from fungal cells.
Data set [3] is described as follows: in vitro. As to conditions: human, red blood cells.
A short description of data set [4]: solubility in water. Format: physicochemical.
For data set [5], the system named is human red blood cells. The data set can be described thus: hemolysis, 50% release of hemoglobin from human red blood cells. The following applies: hemoglobin release from human red blood cells.
Data set [6] relates to Histoplasma capsulatum, Cryptococcus neoformans, and several species of Candida, including C. glabrata and C. albicans. The following applies: cited from earlier work.
In data set [7] the test system is Aspergillus fumigatus. The data set can be described thus: minimum inhibitory concentration, Aspergillus fumigatus, broth microdilution. Format: cell-based. The following applies: 24 h, 37° C. The procedure: (§1) Microorganism inocula was harvested from one to five day old cultures grown on Sabourand's dextrose agar. After two washes with sterile saline, the inocula were counted utilizing a hemacytometer and diluted or concentrated as required to 1×10^4 blastospores per ml. Sterile molten agar (at 50° C.) was inoculated, allowed to cool, and 10 mm diameter discs impregnated (from […] stock solutions) with each of the test compounds was placed on the surface of the agar. Zones of inhibition were measured after incubating the plates at 30° C. for 24-48 hours.
(§2) The compounds were then screened against three strains of three species of microorganisms: Candida albicans, Cryptococcus neoformans, and Aspergillus fumigatus using a conventional double dilution technique. All tests reported in Table II were done by broth microdilution in yeast nitrogen base-glucose using an inoculum of 1×10^4 blastospores per ml; the cultures were incubated at 37° C. for 24 hours, and the minimum concentration (in μg/ml) that prevents visible growth was recorded as the minimum inhibitory concentration.
Background: Dilution methods test growth across graded concentrations, often in twofold steps.

Data set [8] deals with Cryptococcus neoformans. The data set can be described thus: minimum inhibitory concentration, Cryptococcus neoformans, broth microdilution. It is filed as cell-based. The following applies: 24 h. The procedure: as §1, §2
Data set [9] deals with Candida albicans. The data set can be described thus: minimum inhibitory concentration, Candida albicans, broth microdilution. It is filed as cell-based. The following applies: 24 h, 37° C. The procedure:
^c minimum inhibitory concentration (see Example IV); three different
strains of Candida albicans were tested; all tests were done in broth
microdilution in yeast nitrogen baseglucose at 37° C. for 24 hours
the initial inoculum was 1 × 10^4 blastospores per ml
The minimum inhibitory concentration reported in Table I was obtained, and further confirmed as reported in Table II, by the methods described in the following Example IV.
as §1, §2

Data set [10] is described as follows: critical micelle concentration in PBS by molar absorptivity at 409 nm. The following applies: PBS (pH 7.4), 37° C. Format: physicochemical. The text has this: In its monomeric state, Amphotericin B has a characteristic absorption band at 409 nm; upon aggregation, however, its apparent molar absorptivity decreases in magnitude [see Biochemistry 30:5707 (1991)]. Thus, by measuring its molar absorptivity as a function of the reciprocal of the macrolide concentration, one can estimate the critical micelle concentration. This can be shown mathematically by allowing T, m and P to represent the total, monomeric, and micellar concentrations (i.e. the concentration of the drug that is present in micellar form) of the macrolide, respectively, and if ε represents the apparent molar absorptivity and εm and εp are the molar absorptivity for the monomeric and micellar components, respectively, then it can be shown that ε=εp +(εm -εp)m/T. At concentrations in excess of the critical micelle concentration, m is a constant and ε is inversely proportional to T.
Using the method described previously, the critical micelle concentrations for Amphotericin B and the conjugates described in the preceding examples were determined and are reported in Table I describing the aggregation, antifungal and hemolytic properties of […] macrolide antibiotics (in μM amounts) according to the present invention.
^a critical micelle concentration was determined in PBS (pH 7.4) at […]

Data set [11] relates to Candida albicans (isolate NIH A). Briefly: survival of mice infected with Candida albicans (Example V). The following applies: i.p. once per day for ten days, Example II 30 mg/kg, Amphotericin B 1 mg/kg. Format: in vivo, Candida albicans in ICR mice. An excerpt: Ten immunocompetent ICR mice weighing 30 g each in three groups were inoculated intravenously with 3.2×10^6 colony forming units of Candida albicans (isolate NIH A) per mouse.

For data set [12], the system named is fungal organisms. The following applies: compared with Amphotericin B; cited from earlier work.
The subject of data set [13] is mammalian cells. The following applies: compared with Amphotericin B; cited from earlier work.
Setting [14] is: C. neoformans (1), 37° C., read-out: minimum inhibitory concentration.
[15] abbreviates: C. neoformans (2), 37° C., read-out: minimum inhibitory concentration.
The mark [16] stands for this setting: read-out: minimum inhibitory concentration, C. neofornams (3), 37° C.
Setting [17] is: C. albicans (1), read-out: minimum inhibitory concentration.
[18] abbreviates: C. albicans (2), read-out: minimum inhibitory concentration.
[19] abbreviates: C. albicans (3), read-out: minimum inhibitory concentration.
Setting [20] is: three strains of Candida albicans, yeast nitrogen base-glucose, 1 × 10^4 blastospores per ml, read-out: MIC (minimum inhibitory concentration).

Converted amounts (≈) assume the structure as drawn. Read-outs that look alike come from different tables or passages of the source. Some results are limits rather than exact numbers.

As to `C[C@@H]1[C@H](O)[C@@H](C)/C=C/C=C/C=C/C=C/C=C/C=C/C=C/[C@H](O[C@@H]2O[C@H](C)[C@@H](O)[C@H](N)[C@@H]2O)C[C@@H]2O[C@](O)(C[C@@H](O)C[C@@H](O)[C@H](O)CC[C@@H](O)C[C@@H](O)CC(=O)O[C@H]1C)C[C@H](O)[C@H]2C(=O)O` [Amphotericin B, reference compound], in [1], the “critical micelle concentration” value was “very low critical micelle concentration”. Also, in [2], the EC50 was 100 nM. The concentration for 50% haemolysis (HC50) at 1 h in [3] worked out at 1.8 µM. Besides, in [4] (similar to Example I product (<10 μg/ml)), the “solubility in water” value is reported as “low solubility”. Besides, in data set [5], the “concentration needed for hemolysis relative to critical micelle concentration” value is “must be greater than their critical micelle concentration”. Moreover, in data set [6], the “sensitivity to Amphotericin B in vitro” value is 0.03 to 1.0 µg/mL. For the same molecule, the MIC in [7] (A. fumigatus (1)) is 0.8 µg/mL (≈ 0.866 µM); in data set [7] (A. fumigatus (2)), 1.6 µg/mL (≈ 1.73 µM); in data set [7] (A. fumigatus (3)), 0.8 µg/mL (≈ 0.866 µM); in [8] (setting [14]), 0.8 µg/mL (≈ 0.866 µM); in [8] (setting [15]), 0.8 µg/mL (≈ 0.866 µM); in data set [8] (setting [16]), 0.8 µg/mL (≈ 0.866 µM). The MIC in data set [9] (setting [17]) came to 1.6 µg/mL; in data set [9] (setting [18]), 1.6 µg/mL; in data set [9] (setting [19]) it was 1.6 µg/mL; in data set [9] (setting [20]) it was 1.7 µM. The “cmc (critical micelle concentration)” value in data set [10] came to 1.1 µM. Moreover, the percent survival in data set [11] (day 2 post-infection) worked out at 100%; in [11] (day 3 post-infection), 100%; in data set [11] (day 4 post-infection) it was 100%; in data set [11] (day 5 post-infection), 100%; in [11] (day 6 post-infection), 100%; in [11] (day 7 post-infection) it was 90%. In [11] (day 30 post-infection), this molecule gave a percent survival of 90%.

Take `COCCNC(=O)[C@H]1[C@@H]2C[C@@H](O[C@@H]3O[C@H](C)[C@@H](O)[C@H](N)[C@@H]3O)/C=C/C=C/C=C/C=C/C=C/C=C/C=C/[C@H](C)[C@@H](O)[C@@H](C)[C@H](C)OC(=O)C[C@H](O)C[C@H](O)CC[C@@H](O)[C@H](O)C[C@H](O)C[C@](O)(C[C@@H]1O)O2` [Example I]: the EC50 in data set [2] was 800 nM. The concentration for 50% haemolysis (HC50) at 1 h in data set [3] amounted to 7.9 µM. Moreover, in [4], the solubility was less than 10 µg/mL. Besides, the MIC in data set [7] (A. fumigatus (1)) came to 3.2 µg/mL (≈ 3.26 µM); in data set [7] (A. fumigatus (2)), 3.2 µg/mL (≈ 3.26 µM); in [7] (A. fumigatus (3)) it was 1.6 µg/mL (≈ 1.63 µM); in data set [8] (setting [14]), 1.6 µg/mL (≈ 1.63 µM); in [8] (setting [15]), 3.2 µg/mL (≈ 3.26 µM); in data set [8] (setting [16]) it was 0.8 µg/mL (≈ 0.815 µM). In addition, the MIC worked out at 1.6 µg/mL in [9] (setting [17]), 1.6 µg/mL in [9] (setting [18]), 1.6 µg/mL in data set [9] (setting [19]) and 1.6 µM in [9] (setting [20]). In [10], the “cmc (critical micelle concentration)” value is 4.4 µM.

For `C[C@@H]1[C@H](O)[C@@H](C)/C=C/C=C/CC/C=C/C=C/C=C/C=C/C(O[C@H]2O[C@H](C)[C@@H](O)[C@H](N)[C@@H]2O)CC2O[C@](O)(CC(O)C(O)CCC(O)CC(O)CC(O)CC(=O)O[C@H]1C)CC(O)C2C(=O)O` (stereo partly shown) [Nystatin], in data set [12], the “potency against fungal organisms” value is “somewhat lower in potency against fungal organisms as compared with Amphotericin B”. In addition, the “toxicity toward mammalian cells” value in data set [13] is on record as “may be far less toxic toward mammalian cells”.
